From BindingDB's records for doi:10.7270/Q2CN728N (Nmmlsc, 2008) come the findings set out here.

One may read the EC50 as the concentration at which the effect is half-maximal. Low readings indicate an effect from little substance, high ones a need for much substance.

One experiment has as its target T1, Bcl-2-related protein A1 (Homo sapiens, UniProt Q16548).
T1 sequence (Q16548 whole entry): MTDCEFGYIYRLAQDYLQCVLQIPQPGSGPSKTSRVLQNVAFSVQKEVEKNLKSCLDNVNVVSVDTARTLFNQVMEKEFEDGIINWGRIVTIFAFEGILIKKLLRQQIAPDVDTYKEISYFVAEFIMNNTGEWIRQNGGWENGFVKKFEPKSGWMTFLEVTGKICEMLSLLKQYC
The experiment in a line: inhibitors of Bim binding to Bfl-1, dose response, biochemical, multiplexed, bead-based flow cytometry (AID 1320). The settings on record: inactive by the depositor's call; pH 7.4; 4 °C.
On to `CCCCNc1[nH]c(=S)nc2cc(OC)c(OC)cc12` [MLS000520261], for which it took 17.3 µM to reach a half-maximal effect (EC50).

Compound `COc1ccc(C2=Nc3cccc4cccc(c34)N2)cc1` [MLS000551954] showed an EC50 of 6.49 µM.

`CCOc1cccc(CNc2ccc(O)cc2)c1OCc1ccccc1Cl` [MLS000580486] gave an EC50 of 1.61 µM.

As to `CCCC(=O)OCCNc1cc(Sc2nccn2C)c2nonc2c1[N+](=O)[O-]` [MLS000584441], the response was half-maximal at 18.1 µM (EC50).

In turn, `Cc1ccc(/C=C2/NC(=O)N(Cc3ccccc3)C2=O)o1` [MLS000698643] yielded an EC50 of 2.73 µM.

`COc1ccc(/C=C/C(=O)c2cc(Br)ccc(=O)c2O)cc1` [MLS000702099] had an EC50 of 14 µM.

The compound `COc1cccc2c1C(=O)C=C(C)C2=O` [MLS000702735] gave an EC50 of 28.3 µM.

The compound `COC(=O)CCC(=O)Nc1sc(Cc2ccccc2)c(C)c1C(N)=O` [MLS000708819] returned an EC50 of 0.97 µM.

Regarding `CCOC(=O)c1cc2c(=O)n3ccccc3nc2n(Cc2ccco2)/c1=N/C(=O)c1ccccc1OC` [MLS000729830], the EC50 stood at 34.5 µM.

Compound `Cc1ccc(/C=C/C(=O)c2ccccc(=O)c2O)cc1C` [MLS000756172] gave an EC50 of 14.9 µM.

`CC(=O)Nc1ccc(-n2cc(-c3ccccc3)[nH]c2=S)cc1` [MLS001001946] gave an EC50 of 0.47 µM.

As for `CCc1cccc(CC)c1-n1c(-c2cccnc2)n[nH]c1=S` [MLS001006773], the EC50 stood at 1.09 µM.

Take `COc1ccccc1-n1c(-c2ccccc2)c[nH]c1=S` [MLS001007615]: the EC50 is 0.61 µM.

In the case of `O=C(Cn1c2ccccc2c(=O)c2ccccc21)N/N=C/c1ccc(N2CCCC2)c([N+](=O)[O-])c1` [N'-[(1E)-(3-nitro-4-pyrrolidin-1-ylphenyl)methylene]-2-(9-oxoacridin-10(9H)-yl)acetohydrazide], a half-maximal effect (EC50) was put at 41.1 µM.

Compound `O=C(Nc1ccc(N2CCOCC2)cc1)Nc1ccc2nc(-c3ccco3)c(-c3ccco3)nc2c1` [N-(2,3-di-2-furyl-6-quinoxalinyl)-N'-[4-(4-morpholinyl)phenyl]urea] displayed an EC50 of 19.5 µM.

`O=C(Nc1nnc(COc2ccc(Cl)cc2)s1)c1ccco1` [N-[5-[(4-chloranylphenoxy)methyl]-1,3,4-thiadiazol-2-yl]furan-2-carboxamide] came in with an EC50 of 8.07 µM.

The compound `Cc1cccc(OCC(=O)NCC(=O)NN=Cc2cc(Br)ccc2OCc2ccccc2)c1` [N-[(5-bromanyl-2-phenylmethoxy-phenyl)methylideneamino]-2-[2-(3-methylphenoxy)ethanoylamino]ethanamide] had an EC50 of 4.63 µM.

Consider `Nc1ccccc1/N=c1/ssnc1Cl` [N-[(5Z)-4-chloro-5H-1,2,3-dithiazol-5-ylidene]benzene-1,2-diamine], for which the EC50 stood at 4.72 µM.

`CC(C)C(=O)NC(c1ccccc1)c1cc([N+](=O)[O-])c2cccnc2c1O` (stereo unspecified) [N-[(8-hydroxy-5-nitro-7-quinolinyl)-phenylmethyl]-2-methylpropanamide] had an EC50 of 26.5 µM.

`Cc1onc(-c2ccccc2)c1C(=O)Nc1nnc(COc2ccc(Cl)cc2)s1` [N-{5-[(4-chlorophenoxy)methyl]-1,3,4-thiadiazol-2-yl}-5-methyl-3-phenyl-4-isoxazolecarboxamide] had an EC50 of 4.36 µM.

In the case of `Cc1ccc(-c2cc(-c3ccc4c(c3)OCO4)c(C#N)c(N)n2)o1` [SMR000001529], the EC50 came out at 1.88 µM.

For `CSc1nnc2c3cc(C)ccc3n(Cc3ccccc3)c2n1` [SMR000046397], the EC50 was 22.7 µM.

Staying with this experiment, now noted: pH 7.4; 4 °C.
The compound `O=[N+]([O-])c1c(NCCO)cc(Sc2nc3ccccc3s2)c2nonc12` [MLS000520993] gave an EC50 of 0.12 µM.

For `O=[N+]([O-])c1c(NCCCO)cc(Sc2nc3ccccc3s2)c2nonc12` [MLS000520994], the EC50 is 0.61 µM.

Take `CN(CCO)c1cc(Sc2nc3ccccc3s2)c2nonc2c1[N+](=O)[O-]` [MLS000520995]: the EC50 is 1.48 µM.

With `CC(=O)OCCCNc1cc(Sc2nc3ccccc3s2)c2nonc2c1[N+](=O)[O-]` [MLS000521052], the EC50 stood at 0.08 µM.

In turn, `O=C1C=CC(C=NNC(=O)C(=Cc2ccc([N+](=O)[O-])cc2)NC(=O)c2ccccc2)C(O)=C1O` (stereo unspecified) [MLS000530401] yielded an EC50 of 5.22 µM.

Turning to `COc1ccc2c3c(cccc13)N(C)N=C2C` [MLS000554700], the EC50 came to 0.61 µM.

Compound `Cc1ccc(/C=C/C(=O)Nc2ccc([N+](=O)[O-])c(NC(=O)/C=C/c3ccc(C)o3)c2)o1` [MLS000578867] came in with an EC50 of 0.83 µM.

For `Cc1ccc(-c2cc(C(=O)Nc3nccs3)c3ccccc3n2)o1` [MLS000579660], the EC50 stood at 9.21 µM.

Turning to `Cc1nnc(Sc2cc(NCCCO)c([N+](=O)[O-])c3nonc23)s1` [MLS000674027], the EC50 stood at 0.13 µM.

In the case of `Fc1ccc(C2=Nc3cccc4cccc(c34)N2)cc1` [MLS000687139], the EC50 amounted to 7.63 µM.

For `CCN(C(=O)COC(=O)c1cc(-c2ccc(C)o2)nc2ccccc12)C1CCS(=O)(=O)C1` (stereo unspecified) [MLS001003409], the EC50 came to 3.38 µM.

As for `CC1=CC(=O)c2c(O)ccc(O)c2C1=O` [MLS001048870], the EC50 amounted to 2.87 µM.

`c1ccc(Nc2cccc(Nc3ccccc3)n2)cc1` [N,N'-diphenyl-2,6-pyridinediamine] yielded an EC50 of 1.17 µM.

For the compound `CC(=O)c1ccc(NC(=O)c2ccc3nc(-c4ccco4)c(-c4ccco4)nc3c2)cc1` [N-(4-acetylphenyl)-2,3-di-2-furyl-6-quinoxalinecarboxamide], the EC50 worked out at 2.34 µM.

Turning to `Clc1nss/c1=N\c1ccc(Br)cc1` [N-(4-bromophenyl)-4-chloro-5-dithiazolimine], the EC50 was 9.18 µM.

For the compound `COc1ccc(CCNC(=O)c2ccc3nc(-c4ccco4)c(-c4ccco4)nc3c2)cc1OC` [N-[2-(3,4-dimethoxyphenyl)ethyl]-2,3-di-2-furylquinoxaline-6-carboxamide], the response was half-maximal at 4.3 µM (EC50).

In the case of `COc1ccccc1NC1=C(NC(C)=O)C(=O)c2ccccc2C1=O` [N-[3-(2-methoxyanilino)-1,4-dioxonaphthalen-2-yl]acetamide], the EC50 stood at 1.41 µM.

The compound `O=C(NC1=C(NC2CCS(=O)(=O)C2)C(=O)c2ccccc2C1=O)c1ccccc1` (stereo unspecified) [N-[3-[(1,1-dioxo-3-thiolanyl)amino]-1,4-dioxo-2-naphthalenyl]benzamide] had an EC50 of 6.59 µM.

`CC(=O)NC1=C(NC2CCS(=O)(=O)C2)C(=O)c2ccccc2C1=O` (stereo unspecified) [N-[3-[(1,1-dioxothiolan-3-yl)amino]-1,4-dioxonaphthalen-2-yl]acetamide]: the EC50 turned out to be 1.55 µM.

`Cc1cccc(C(=O)/N=c2\c(C#N)cc3c(=O)n4cccc(C)c4nc3n2Cc2ccco2)c1` [N-[3-cyano-1-(furan-2-ylmethyl)-10-methyl-5-oxodipyrido[3,4-c:1',2'-f]pyrimidin-2-ylidene]-3-methylbenzamide] had an EC50 of 9.69 µM.

The compound `COc1cc(CNc2ccc(N3CCCC3)cc2)cc(Cl)c1OC` [N-[(3-chloranyl-4,5-dimethoxy-phenyl)methyl]-4-pyrrolidin-1-yl-aniline] displayed an EC50 of 5.3 µM.

Regarding `CCC(=O)N(CC)C1C(=O)C(=O)c2ccccc2C1=O` (stereo unspecified) [N-ethyl-N-(1-hydroxy-3,4-dioxo-2-naphthalenyl)propanamide], the EC50 was found to be 0.08 µM.

For the compound `CC(C)(C)NC(=O)COc1ccc(CNc2ccc3[nH]c(O)nc3c2)cc1` [N-tert-butyl-2-[4-[[(2-oxidanylidene-1,3-dihydrobenzimidazol-5-yl)amino]methyl]phenoxy]ethanamide], the EC50 was 2.87 µM.

On to `COc1cc(/N=c2/ssnc2Cl)cc(OC)c1OC` [SMR000025034], for which the EC50 came out at 3.63 µM.
